The structures appear in SMILES notation. Where only a bound is given, the exact number is not on record here.

Holding throughout (assay type): cell-based
Experiment [1] deals with T1, human TLR9 (Homo sapiens, UniProt Q9NR96).
T1 construct: host or cells: HEK-Blue cells (HEK293-derived reporter line)
T1 sequence (Q9NR96 26-1032): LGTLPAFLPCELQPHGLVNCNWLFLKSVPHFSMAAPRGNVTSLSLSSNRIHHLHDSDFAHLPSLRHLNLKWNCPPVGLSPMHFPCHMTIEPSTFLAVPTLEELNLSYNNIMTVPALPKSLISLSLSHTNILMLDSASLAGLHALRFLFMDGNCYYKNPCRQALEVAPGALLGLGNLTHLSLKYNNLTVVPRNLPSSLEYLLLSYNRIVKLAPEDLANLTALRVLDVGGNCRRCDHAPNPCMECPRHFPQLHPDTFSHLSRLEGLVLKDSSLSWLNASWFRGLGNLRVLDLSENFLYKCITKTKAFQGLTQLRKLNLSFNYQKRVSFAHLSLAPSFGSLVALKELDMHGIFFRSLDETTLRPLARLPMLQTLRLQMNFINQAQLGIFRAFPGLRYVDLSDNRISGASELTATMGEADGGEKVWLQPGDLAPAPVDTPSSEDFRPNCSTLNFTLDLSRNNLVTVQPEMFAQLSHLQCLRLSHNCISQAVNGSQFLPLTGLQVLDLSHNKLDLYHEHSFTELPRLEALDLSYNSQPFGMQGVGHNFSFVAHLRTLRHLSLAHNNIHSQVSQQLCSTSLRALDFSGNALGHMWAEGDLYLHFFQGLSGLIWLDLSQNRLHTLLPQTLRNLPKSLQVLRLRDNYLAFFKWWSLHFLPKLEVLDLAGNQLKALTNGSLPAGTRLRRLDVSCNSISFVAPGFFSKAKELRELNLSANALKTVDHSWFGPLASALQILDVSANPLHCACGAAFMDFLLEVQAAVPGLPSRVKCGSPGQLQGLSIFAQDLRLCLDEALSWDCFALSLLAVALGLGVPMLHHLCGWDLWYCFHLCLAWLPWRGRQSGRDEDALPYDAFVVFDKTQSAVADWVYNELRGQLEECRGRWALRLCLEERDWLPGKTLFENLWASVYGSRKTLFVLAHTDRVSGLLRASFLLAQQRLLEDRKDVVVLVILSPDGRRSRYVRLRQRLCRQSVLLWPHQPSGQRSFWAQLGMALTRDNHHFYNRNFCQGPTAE
The experiment is described as follows: TLR9 inhibition reporter assay (HEK-Blue cells, SEAP reporter, ODN2006 stimulation). Conditions: HEK-Blue cells overexpressing human TLR9, SEAP reporter, ODN2006 5 nM. In short, it runs like this:
(§1)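 HEK-Blue cells overexpressing human TLR7, TLR8 or TLR9 (NF-κB/AP-1-driven SEAP) pre-treated 30 min at room temperature with compound (0.05 nM–50 μM), then stimulated with gardiquimod 7.5 μM (TLR7), R848 15.9 μM (TLR8) or ODN2006 5 nM (TLR9). SEAP read colorimetrically after 22 h at 37 °C; % inhibition calculated.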

In experiment [2] the target is T2, human TLR7 (Homo sapiens, UniProt Q9NYK1).
T2 construct: host or cells: HEK-Blue cells (HEK293-derived reporter line)
T2 sequence (Q9NYK1 27-1049): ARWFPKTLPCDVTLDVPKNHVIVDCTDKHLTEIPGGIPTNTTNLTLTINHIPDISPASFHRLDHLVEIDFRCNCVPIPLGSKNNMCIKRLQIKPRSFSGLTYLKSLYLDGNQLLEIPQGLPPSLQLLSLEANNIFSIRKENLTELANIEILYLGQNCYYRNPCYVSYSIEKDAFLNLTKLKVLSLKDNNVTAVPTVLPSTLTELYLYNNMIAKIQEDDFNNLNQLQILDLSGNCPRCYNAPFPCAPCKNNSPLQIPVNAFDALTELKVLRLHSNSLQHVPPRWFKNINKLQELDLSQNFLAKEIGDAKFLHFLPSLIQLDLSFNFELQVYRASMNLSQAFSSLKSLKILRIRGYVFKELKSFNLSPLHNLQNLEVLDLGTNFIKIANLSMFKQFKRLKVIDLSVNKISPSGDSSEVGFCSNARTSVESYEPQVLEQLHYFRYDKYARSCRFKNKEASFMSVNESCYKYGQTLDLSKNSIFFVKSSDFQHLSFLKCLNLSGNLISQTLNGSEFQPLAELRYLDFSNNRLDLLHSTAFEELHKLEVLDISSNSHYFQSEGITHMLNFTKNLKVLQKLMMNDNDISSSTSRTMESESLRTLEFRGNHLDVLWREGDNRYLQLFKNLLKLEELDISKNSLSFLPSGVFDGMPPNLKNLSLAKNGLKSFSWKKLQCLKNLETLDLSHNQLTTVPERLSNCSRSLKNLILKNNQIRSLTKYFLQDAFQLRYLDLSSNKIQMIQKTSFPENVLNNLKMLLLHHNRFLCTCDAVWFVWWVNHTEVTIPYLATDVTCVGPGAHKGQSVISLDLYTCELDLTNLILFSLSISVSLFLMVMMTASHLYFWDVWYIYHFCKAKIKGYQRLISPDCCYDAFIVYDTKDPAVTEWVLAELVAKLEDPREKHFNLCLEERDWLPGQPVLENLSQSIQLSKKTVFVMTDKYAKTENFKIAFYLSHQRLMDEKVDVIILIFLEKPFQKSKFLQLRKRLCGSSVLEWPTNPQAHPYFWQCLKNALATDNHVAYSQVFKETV
Briefly: TLR7 inhibition reporter assay (HEK-Blue cells, SEAP reporter, gardiquimod stimulation). The conditions noted are these: HEK-Blue cells overexpressing human TLR7, SEAP reporter, gardiquimod 7.5 μM. In short, it runs like this: as §1

The target of experiment [3] is T3, human TLR8 (Homo sapiens, UniProt Q9NR97).
T3 construct: host or cells: HEK-Blue cells (HEK293-derived reporter line)
T3 sequence (Q9NR97 27-1041): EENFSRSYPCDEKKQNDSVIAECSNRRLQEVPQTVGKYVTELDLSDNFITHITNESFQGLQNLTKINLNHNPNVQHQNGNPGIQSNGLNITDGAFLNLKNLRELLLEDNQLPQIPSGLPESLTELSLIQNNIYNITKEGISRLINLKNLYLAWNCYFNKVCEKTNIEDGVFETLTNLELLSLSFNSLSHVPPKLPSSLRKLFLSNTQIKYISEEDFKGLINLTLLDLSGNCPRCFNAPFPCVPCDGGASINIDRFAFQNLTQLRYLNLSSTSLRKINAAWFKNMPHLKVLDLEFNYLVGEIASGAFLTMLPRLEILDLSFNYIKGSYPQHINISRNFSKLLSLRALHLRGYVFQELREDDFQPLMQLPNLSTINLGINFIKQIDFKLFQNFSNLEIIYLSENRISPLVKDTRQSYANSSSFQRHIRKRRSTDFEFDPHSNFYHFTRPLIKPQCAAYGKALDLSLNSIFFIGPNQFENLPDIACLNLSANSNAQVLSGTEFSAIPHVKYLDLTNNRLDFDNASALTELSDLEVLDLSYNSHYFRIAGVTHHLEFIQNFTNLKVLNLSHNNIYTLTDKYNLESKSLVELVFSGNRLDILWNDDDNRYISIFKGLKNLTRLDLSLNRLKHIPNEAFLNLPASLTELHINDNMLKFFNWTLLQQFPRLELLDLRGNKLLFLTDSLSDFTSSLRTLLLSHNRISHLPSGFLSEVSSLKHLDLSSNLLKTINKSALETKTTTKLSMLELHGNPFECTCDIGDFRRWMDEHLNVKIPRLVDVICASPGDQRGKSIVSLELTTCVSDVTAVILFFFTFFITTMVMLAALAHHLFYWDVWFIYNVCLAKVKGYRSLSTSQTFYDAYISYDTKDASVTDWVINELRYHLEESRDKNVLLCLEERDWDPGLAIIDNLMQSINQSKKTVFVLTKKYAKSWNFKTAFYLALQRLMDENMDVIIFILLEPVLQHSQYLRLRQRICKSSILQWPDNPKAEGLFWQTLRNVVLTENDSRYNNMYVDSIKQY
Briefly: TLR8 inhibition reporter assay (HEK-Blue cells, SEAP reporter, R848 stimulation). The conditions noted are these: HEK-Blue cells overexpressing human TLR8, SEAP reporter, R848 15.9 μM. In short, it runs like this:
as §1

In the case of `CCc1c(-c2ccc3ncc(C#N)n3n2)[nH]c2ccc(C3CCNCC3)cc12` [Example 102, 6-(3-ethyl-5-(piperidin-4-yl)-1H-indol-2-yl)imidazo [1,2-b]pyridazine-3-carbonitrile], the IC50 in experiment [1], in experiment [2] and in experiment [3] was 1000 to 50000 nM each time.
As for `CCc1c(-c2ccc3ncc(C)n3n2)[nH]c2ccc(C3CCNCC3)cc12` [Example 103, 6-(3-ethyl-5-(piperidin-4-yl)-1H-indol-2-yl)-3-methylimidazo[1,2-b]pyridazine], the figures for the IC50 in experiment [1], in experiment [2] and in experiment [3] were 1000 to 50000 nM, 1000 to 50000 nM and 100 to 1000 nM, respectively.
With `Cc1cc(-c2[nH]c3ccc(C4CCNCC4)cc3c2C(C)C)c2ccccc2n1` [Example 104, 4-(3-isopropyl-5-(piperidin-4-yl)-1H-indol-2-yl)-2-methylquinoline], the IC50 is 1000 to 50000 nM in experiment [1], less than 100 nM in experiment [2] and less than 100 nM in experiment [3].
Consider `COc1cc(-c2[nH]c3ccc(C4CCNCC4)cc3c2C(C)C)c2ccccc2n1` [Example 105, 4-(3-isopropyl-5-(piperidin-4-yl)-1H-indol-2-yl)-2-methoxyquinoline], for which the IC50 in experiment [1] is 1000 to 50000 nM; in experiment [2], less than 100 nM; in experiment [3] it was 100 to 1000 nM.
For the compound `CC(C)c1c(-c2ccc(Cl)c3[nH]ncc23)[nH]c2ccc(C3CCNCC3)cc12` [Example 106, 7-chloro-4-(3-isopropyl-5-(piperidin-4-yl)-1H-indol-2-yl)-1H-indazole], the values for the IC50 in experiment [1], in experiment [2] and in experiment [3] were 1000 to 50000 nM, 100 to 1000 nM and 100 to 1000 nM, respectively.
On to `Cc1cc(-c2[nH]c3ccc(C4CCNCC4)cc3c2C(C)C)cc2c(O)c(C#N)cnc12` [Example 107, 4-hydroxy-6-(3-isopropyl-5-(piperidin-4-yl)-1H-indol-2-yl)-8-methylquinoline-3-carbonitrile], for which the IC50 in experiment [1] is 1000 to 50000 nM; in experiment [2] it was 1000 to 50000 nM; in experiment [3], greater than 3130 nM.
With `CCc1c(-c2cnc3cc(C)cnn23)[nH]c2ccc(C3CCNCC3)cc12` [Example 108, 3-(3-ethyl-5-(piperidin-4-yl)-1H-indol-2-yl)-7-methylimidazo[1,2-b]pyridazine], the values for the half-maximal inhibitory concentration (IC50) in experiment [1], in experiment [2] and in experiment [3] were 1000 to 50000 nM, greater than 50000 nM and 1000 to 50000 nM, respectively.
In the case of `CC(C)c1c(-c2ccc(C#N)c3ncccc23)[nH]c2ccc(C3CCNCC3)cc12` [Example 109, 5-(3-isopropyl-5-(piperidin-4-yl)-1H-indol-2-yl)quinoline-8-carbonitrile], the figures for the half-maximal inhibitory concentration (IC50) in experiment [1], in experiment [2] and in experiment [3] were 100 to 1000 nM, less than 100 nM and less than 100 nM, respectively.
Turning to `Cc1cc2nccn2cc1-c1[nH]c2ccc(C3CCNCC3)cc2c1C(C)C` [Example 110, 6-(3-isopropyl-5-(piperidin-4-yl)-1H-indol-2-yl)-7-methylimidazo[1,2-a]pyridine], the IC50 in experiment [1] is 100 to 1000 nM; in experiment [2], less than 100 nM; in experiment [3], less than 100 nM.
With `Cc1cc(-c2[nH]c3ccc(C4CCNCC4)cc3c2C(C)C)cn2ccnc12` [Example 112, 6-(3-isopropyl-5-(piperidin-4-yl)-1H-indol-2-yl)-8-methylimidazo[1,2-a]pyridine], the results for the IC50 in experiment [1], in experiment [2] and in experiment [3] were 100 to 1000 nM, less than 100 nM and less than 100 nM, respectively.
As for `Cc1cnc2ccc(-c3[nH]c4ccc(C5CCNCC5)cc4c3C(C)C)cn12` [Example 114, 6-(3-isopropyl-5-(piperidin-4-yl)-1H-indol-2-yl)-3-methylimidazo[1,2-a]pyridine], the figures for the half-inhibitory concentration (IC50) in experiment [1], in experiment [2] and in experiment [3] were 100 to 1000 nM, less than 100 nM and 100 to 1000 nM, respectively.
Take `Cc1cn2cc(-c3[nH]c4ccc(C5CCNCC5)cc4c3C(C)C)ccc2n1` [Example 115, 6-(3-isopropyl-5-(piperidin-4-yl)-1H-indol-2-yl)-2-methylimidazo[1,2-a]pyridine]: the 50% inhibitory concentration (IC50) was 100 to 1000 nM in experiment [1], less than 100 nM in experiment [2] and 100 to 1000 nM in experiment [3].
For `CC(C)c1c(-c2ccc3nc(N)cn3c2)[nH]c2ccc(C3CCNCC3)cc12` [Example 116, 6-(3-isopropyl-5-(piperidin-4-yl)-1H-indol-2-yl)imidazo[1,2-a]pyridin-2-amine], the IC50 fell in the range of 1000 to 50000 nM in experiment [1], 100 to 1000 nM in experiment [2] and 100 to 1000 nM in experiment [3].
Take `CC(C)c1c(-c2cc(N)c3nccn3c2)[nH]c2ccc(C3CCNCC3)cc12` [Example 117, 6-(3-isopropyl-5-(piperidin-4-yl)-1H-indol-2-yl)imidazo[1,2-a]pyridin-8-amine]: the results for the half-maximal inhibitory concentration (IC50) in experiment [1], in experiment [2] and in experiment [3] were 100 to 1000 nM, less than 100 nM and less than 100 nM, respectively.
Regarding `CC(C)c1c(-c2cc(F)c3nccn3c2)[nH]c2ccc(C3CCNCC3)cc12` [Example 118, 8-fluoro-6-(3-isopropyl-5-(piperidin-4-yl)-1H-indol-2-yl)imidazo[1,2-a]pyridine], the IC50 in experiment [1] is 100 to 1000 nM; in experiment [2] it was less than 100 nM; in experiment [3] it was less than 100 nM.

The record behind these values is US11739098B2 (BRISTOL-MYERS SQUIBB COMPANY, priority 2017, dated 2023).
